From ChEMBL document CHEMBL3526033, “Identification of human liver cytochrome P450 enzymes involved in the metabolism of SCH 530348 (Vorapaxar), a potent oral thrombin protease-activated receptor 1 antagonist” (Drug Metab Dispos, 2011)
Values belong to the compound of their own block, whether it stands above or below them.

Key:
[1] = target: Cytochrome P450 4A11 (Homo sapiens, UniProt Q02928); assay: Activity of human recombinant CYP4A11 assessed as enzyme-mediated 2-hydroxyethyl (1R,3aR,4aR,6R,8aR,9S,9aS)-9-((E)-2-(5-(3-fluorophenyl)pyridin-2-yl)vinyl)-1-methyl-3-oxododecahydronaphtho[2,3-c]furan-6-ylcarbamate formation at 25 uM after 120 mins by LC-MS/MS analysis in presence of NADPH; assay type: ADME; settings: 2 h
[2] = target: T1, Cytochrome P450 2C9 (Homo sapiens, UniProt P11712); assay: Activity of human recombinant CYP2C9 assessed as enzyme-mediated 2-hydroxyethyl (1R,3aR,4aR,6R,8aR,9S,9aS)-9-((E)-2-(5-(3-fluorophenyl)pyridin-2-yl)vinyl)-1-methyl-3-oxododecahydronaphtho[2,3-c]furan-6-ylcarbamate formation at 25 uM after 120 mins by LC-MS/MS analysis in presence of NADPH; assay type: ADME; settings: 2 h
[3] = target: T2, Cytochrome P450 2B6 (Homo sapiens, UniProt P20813); assay: Activity of human recombinant CYP2B6 assessed as enzyme-mediated 2-hydroxyethyl (1R,3aR,4aR,6R,8aR,9S,9aS)-9-((E)-2-(5-(3-fluorophenyl)pyridin-2-yl)vinyl)-1-methyl-3-oxododecahydronaphtho[2,3-c]furan-6-ylcarbamate formation at 25 uM after 120 mins by LC-MS/MS analysis in presence of NADPH; assay type: ADME; settings: 2 h
T2 sequence (P20813 whole entry): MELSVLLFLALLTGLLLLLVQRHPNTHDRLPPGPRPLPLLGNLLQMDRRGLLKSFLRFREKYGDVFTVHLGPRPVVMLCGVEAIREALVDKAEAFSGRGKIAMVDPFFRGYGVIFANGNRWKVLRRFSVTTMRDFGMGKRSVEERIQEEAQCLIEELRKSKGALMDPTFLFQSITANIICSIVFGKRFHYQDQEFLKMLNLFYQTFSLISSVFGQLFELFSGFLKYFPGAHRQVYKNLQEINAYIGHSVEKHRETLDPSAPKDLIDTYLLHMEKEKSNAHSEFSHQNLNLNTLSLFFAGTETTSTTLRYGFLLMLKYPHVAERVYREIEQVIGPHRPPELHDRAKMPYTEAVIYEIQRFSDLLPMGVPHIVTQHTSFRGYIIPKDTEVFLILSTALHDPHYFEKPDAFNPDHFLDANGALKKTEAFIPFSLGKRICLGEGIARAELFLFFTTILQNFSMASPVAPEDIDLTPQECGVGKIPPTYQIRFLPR

[4] = target: T3, Cytochrome P450 3A4 (Homo sapiens, UniProt P08684); assay: Activity of human recombinant CYP3A4 assessed as enzyme-mediated (3R,3aS,4S,4aR,7R,8aR,9aR)-7-amino-4-((E)-2-(5-(3-fluorophenyl)pyridin-2-yl)vinyl)-3-methyldecahydronaphtho[2,3-c]furan-1(3H)-one formation assessed per nmol of enzyme at 10 uM after 120 mins by LC-MS/MS analysis in presence of NADPH; assay type: ADME; settings: 2 h
[5] = target: Cytochrome P450 2C18 (Homo sapiens, UniProt P33260); assay: Activity of human recombinant CYP2C18 assessed as enzyme-mediated 2-hydroxyethyl (1R,3aR,4aR,6R,8aR,9S,9aS)-9-((E)-2-(5-(3-fluorophenyl)pyridin-2-yl)vinyl)-1-methyl-3-oxododecahydronaphtho[2,3-c]furan-6-ylcarbamate formation at 25 uM after 120 mins by LC-MS/MS analysis in presence of NADPH; assay type: ADME; settings: 2 h
[6] = target: Cytochrome P450 2C19 (Homo sapiens, UniProt P33261); assay: Activity of human recombinant CYP2C19 assessed as enzyme-mediated drug metabolism at 10 uM after 120 mins by LC-MS/MS analysis; assay type: ADME; settings: 2 h
[7] = target: T3, Cytochrome P450 3A4; assay: Activity of human recombinant CYP3A4 assessed as enzyme-mediated 2-hydroxyethyl (1R,3aR,4aR,6R,8aR,9S,9aS)-9-((E)-2-(5-(3-fluorophenyl)pyridin-2-yl)vinyl)-1-methyl-3-oxododecahydronaphtho[2,3-c]furan-6-ylcarbamate formation at 25 uM after 120 mins by LC-MS/MS analysis in presence of NADPH; assay type: ADME; settings: 2 h
[8] = target: T1, Cytochrome P450 2C9; assay: Activity of human recombinant CYP2C9 assessed as enzyme-mediated drug metabolism treated with 25 uM vorapaxar after 120 mins by LC-MS/MS analysis in presence of NADPH; assay type: ADME; settings: 2 h
[9] = target: T4, Cytochrome P450 2J2 (Homo sapiens, UniProt P51589); assay: Drug metabolism in human liver microsomes assessed as CYP2J2-mediated (3R,3aS,4S,4aR,7R,8aR,9aR)-7-amino-4-((E)-2-(5-(3-fluorophenyl)pyridin-2-yl)vinyl)-3-methyldecahydronaphtho[2,3-c]furan-1(3H)-one formation at 25 uM after 120 mins by LC-MS/MS analysis; assay type: ADME; settings: 2 h
T4 sequence (P51589 whole entry): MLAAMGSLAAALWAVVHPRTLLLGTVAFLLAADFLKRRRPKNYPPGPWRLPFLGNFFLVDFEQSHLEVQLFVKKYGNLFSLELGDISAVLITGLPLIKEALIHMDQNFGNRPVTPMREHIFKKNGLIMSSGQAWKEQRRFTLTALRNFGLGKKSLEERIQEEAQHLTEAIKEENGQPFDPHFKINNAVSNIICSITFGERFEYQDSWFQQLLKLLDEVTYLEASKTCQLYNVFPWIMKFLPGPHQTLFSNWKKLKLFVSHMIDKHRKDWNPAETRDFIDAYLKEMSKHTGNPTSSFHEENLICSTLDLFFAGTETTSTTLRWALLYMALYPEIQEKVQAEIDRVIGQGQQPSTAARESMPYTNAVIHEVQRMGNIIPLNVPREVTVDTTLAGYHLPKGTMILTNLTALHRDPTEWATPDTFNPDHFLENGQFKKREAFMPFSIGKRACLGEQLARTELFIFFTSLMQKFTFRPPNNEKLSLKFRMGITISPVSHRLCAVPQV

[10] = target: T3, Cytochrome P450 3A4; assay: Drug metabolism in human liver microsomes assessed as CYP3A4-mediated (3R,3aS,4S,4aR,7R,8aR,9aR)-7-amino-4-((E)-2-(5-(3-fluorophenyl)pyridin-2-yl)vinyl)-3-methyldecahydronaphtho[2,3-c]furan-1(3H)-one formation at 25 uM after 120 mins by LC-MS/MS analysis; assay type: ADME; settings: 2 h
[11] = Drug metabolism in human lung microsomes assessed as 2-hydroxyethyl (1R,3aR,4aR,6R,8aR,9S,9aS)-9-((E)-2-(5-(3-fluorophenyl)pyridin-2-yl)vinyl)-1-methyl-3-oxododecahydronaphtho[2,3-c]furan-6-ylcarbamate formation at 25 uM after 120 mins by LC-MS/MS analysis in presence of NADPH; assay type: ADME, microsome; settings: 2 h
[12] = Drug metabolism in human intestine microsomes assessed as 2-hydroxyethyl (1R,3aR,4aR,6R,8aR,9S,9aS)-9-((E)-2-(5-(3-fluorophenyl)pyridin-2-yl)vinyl)-1-methyl-3-oxododecahydronaphtho[2,3-c]furan-6-ylcarbamate formation at 25 uM after 120 mins by LC-MS/MS analysis in presence of NADPH; assay type: ADME; settings: 2 h
[13] = Drug metabolism in human intestine microsomes assessed as ((4aR,6R)-9-{2-[(1R,4S)-5-((S)-3-Fluoro-phenyl)-pyridin-2-yl]-vinyl}-1-methyl-3-oxo-dodecahydro-naphtho[2,3-c]furan-6-yl)-carbamic acid(R)-2-hydroxy-ethyl ester formation by LC-MS/MS analysis in presence of 100 uM astemizole; assay type: ADME

T3 sequence (P08684 whole entry): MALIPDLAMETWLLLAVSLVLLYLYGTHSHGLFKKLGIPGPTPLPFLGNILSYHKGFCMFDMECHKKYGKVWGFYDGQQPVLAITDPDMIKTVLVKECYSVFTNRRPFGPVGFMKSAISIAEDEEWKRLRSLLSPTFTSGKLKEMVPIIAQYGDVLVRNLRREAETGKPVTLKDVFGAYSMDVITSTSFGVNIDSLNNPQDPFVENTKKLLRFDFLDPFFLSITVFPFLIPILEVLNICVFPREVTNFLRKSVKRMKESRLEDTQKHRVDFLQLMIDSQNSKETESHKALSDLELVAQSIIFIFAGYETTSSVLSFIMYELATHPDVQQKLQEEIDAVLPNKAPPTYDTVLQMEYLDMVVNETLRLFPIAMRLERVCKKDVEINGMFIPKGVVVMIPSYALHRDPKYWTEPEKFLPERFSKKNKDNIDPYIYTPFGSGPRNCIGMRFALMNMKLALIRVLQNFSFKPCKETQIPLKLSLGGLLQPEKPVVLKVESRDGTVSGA
T1 sequence (P11712 whole entry): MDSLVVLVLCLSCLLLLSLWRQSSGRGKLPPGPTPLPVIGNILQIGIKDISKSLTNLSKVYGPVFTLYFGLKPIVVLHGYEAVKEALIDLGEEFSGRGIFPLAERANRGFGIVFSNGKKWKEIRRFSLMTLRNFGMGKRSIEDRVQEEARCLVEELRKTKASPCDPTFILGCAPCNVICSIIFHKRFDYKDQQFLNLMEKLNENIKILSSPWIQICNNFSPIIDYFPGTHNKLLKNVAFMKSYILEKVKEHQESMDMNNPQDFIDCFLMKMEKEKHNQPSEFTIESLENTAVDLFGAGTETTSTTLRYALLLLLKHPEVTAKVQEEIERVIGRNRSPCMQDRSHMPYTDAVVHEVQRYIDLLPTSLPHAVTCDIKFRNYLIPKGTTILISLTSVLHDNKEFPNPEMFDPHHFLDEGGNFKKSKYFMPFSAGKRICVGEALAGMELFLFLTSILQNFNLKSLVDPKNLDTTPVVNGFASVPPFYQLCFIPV
Chain of Cytochrome P450 4A11 (Q02928 whole entry): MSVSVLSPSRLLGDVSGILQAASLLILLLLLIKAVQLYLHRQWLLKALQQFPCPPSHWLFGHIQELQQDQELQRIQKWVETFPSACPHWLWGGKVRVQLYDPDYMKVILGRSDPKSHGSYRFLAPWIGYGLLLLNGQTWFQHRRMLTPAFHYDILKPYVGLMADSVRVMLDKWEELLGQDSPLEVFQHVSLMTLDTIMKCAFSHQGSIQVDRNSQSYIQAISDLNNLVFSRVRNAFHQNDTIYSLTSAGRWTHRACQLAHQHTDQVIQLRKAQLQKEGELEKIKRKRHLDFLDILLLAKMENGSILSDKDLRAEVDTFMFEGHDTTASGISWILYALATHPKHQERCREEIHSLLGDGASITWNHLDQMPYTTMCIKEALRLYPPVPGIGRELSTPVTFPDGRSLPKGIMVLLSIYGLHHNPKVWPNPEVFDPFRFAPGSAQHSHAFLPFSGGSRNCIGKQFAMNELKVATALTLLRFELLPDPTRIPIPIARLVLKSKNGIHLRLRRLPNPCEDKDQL
Chain of Cytochrome P450 2C18 (P33260 whole entry): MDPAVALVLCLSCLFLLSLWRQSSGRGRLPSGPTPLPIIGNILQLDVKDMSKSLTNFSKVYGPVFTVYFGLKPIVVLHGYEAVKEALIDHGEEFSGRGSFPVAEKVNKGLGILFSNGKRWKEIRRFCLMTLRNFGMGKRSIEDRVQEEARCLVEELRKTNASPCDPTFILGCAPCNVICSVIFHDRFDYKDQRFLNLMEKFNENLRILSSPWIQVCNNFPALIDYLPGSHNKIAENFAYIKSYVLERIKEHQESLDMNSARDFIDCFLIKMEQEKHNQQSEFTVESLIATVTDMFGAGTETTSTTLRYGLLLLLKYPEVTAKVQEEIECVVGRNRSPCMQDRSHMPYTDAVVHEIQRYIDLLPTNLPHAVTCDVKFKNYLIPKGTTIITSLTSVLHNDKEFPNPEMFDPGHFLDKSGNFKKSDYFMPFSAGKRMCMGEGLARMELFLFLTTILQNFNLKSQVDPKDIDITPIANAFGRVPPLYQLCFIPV
Chain of Cytochrome P450 2C19 (P33261 whole entry): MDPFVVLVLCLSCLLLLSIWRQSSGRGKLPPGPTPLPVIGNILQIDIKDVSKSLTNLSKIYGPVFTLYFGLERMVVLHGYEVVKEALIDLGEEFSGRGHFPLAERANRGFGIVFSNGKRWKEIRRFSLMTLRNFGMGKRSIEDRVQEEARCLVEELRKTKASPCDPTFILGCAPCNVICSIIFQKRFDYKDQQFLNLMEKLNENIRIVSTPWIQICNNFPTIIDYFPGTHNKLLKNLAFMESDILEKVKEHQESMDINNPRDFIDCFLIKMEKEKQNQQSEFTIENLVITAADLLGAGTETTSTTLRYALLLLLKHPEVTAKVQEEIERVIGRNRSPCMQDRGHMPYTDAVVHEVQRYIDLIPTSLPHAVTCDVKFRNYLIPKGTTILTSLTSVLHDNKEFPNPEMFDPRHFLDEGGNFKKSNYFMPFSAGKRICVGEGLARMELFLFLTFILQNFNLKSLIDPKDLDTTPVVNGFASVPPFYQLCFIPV

Drug metabolism [1]: metabolite_detected | Drug metabolism [2]: metabolite_detected | Drug metabolism [3]: metabolite_detected | Drug metabolism [4]: 109.8 pmol/min | Drug metabolism [5]: metabolite_detected | Drug metabolism [6]: metabolite_not_detected | Drug metabolism [7]: metabolite_detected
Structure (SMILES): CCOC(=O)N[C@@H]1CC[C@@H]2[C@@H](C1)C[C@H]1C(=O)O[C@H](C)[C@H]1[C@H]2/C=[14CH]/c1ccc(-c2cccc(F)c2)cn1

Drug metabolism [8]: metabolite_detected | Drug metabolism [9]: metabolite_detected | Drug metabolism [10]: metabolite_detected
Structure (SMILES): C[C@H]1OC(=O)[C@@H]2C[C@@H]3C[C@H](NC(=O)OCCO)CC[C@H]3[C@H](/C=C/c3ccc(-c4cccc(F)c4)cn3)[C@H]12

Drug metabolism [11]: metabolite_detected | Drug metabolism [12]: metabolite_detected | inhibition (INH) [13]: 77%
Structure (SMILES): CCOC(=O)N[C@@H]1CC[C@@H]2[C@@H](C1)C[C@H]1C(=O)O[C@H](C)[C@H]1[C@H]2/C=C/c1ccc(-c2cccc(F)c2)cn1 [VORAPAXAR]
